# Laboratory results reported in patent publication US12023330B2, “Use of manzamines as antiproliferative agent” (priority 2020, dated 2024).
# Columns and labels:
# [1] = tested on: C33A, HeLa, SiHa and CaSki cell lines; assay: Cell growth kinetics; type: cell-based, human
# Experimental: To maintain the treatment uniformity across the cell lines, we selected optimal dose concentration of 1 to 4 μM, and treated C33A, HeLa, SiHa and CaSki cell lines.
# Cell Growth Kinetics. Cervical cancer cells (1×10^6) or HKc (2×10^5) were plated in 100 mm tissue culture petri dish or 6-well plates. Following overnight incubation, cells were treated with 2 μM or 4 μM concentrations of manzamine A (1) derivatives for different time points (24, 48 and 72 hours). Dimethyl sulphoxide (DMSO) was used as control. The cell proliferation activity was determined by cell counting under the microscope with a hemocytometer using trypan blue staining.
# [2] = Weight loss at high doses; type: in vivo
# Text: The manzamine class of marine alkaloids is attractive in its potential for the development of novel therapeutics. This group has among the most extensively studied marine natural products to date, being found in more than 16 species of Indo-Pacific sponges distributed within distinct geographical regions. […] These molecules also show interesting activity as neuroprotective and anti-inflammatory agents, HIV/AIDS-associated opportunistic infections, and inhibition of cancer proliferative and metastatic activity. See Ridley, R. G.; Matile, H.; Jaquet, C.; Dorn, A.; Hofheinz, W.; Leupin, W.; Masciadri, R.; Theil, F. P.; Richter, W. F.; Girometta, M. A.; Guenzi, A.; Urwyler, H.; Gocke, E.; Potthast, J. M.; Csato, M.; Thomas, A.; Peters, W. Antimicrob. Agents Chemother. 1997, 41, 677-686. […] It is anticipated that short-term weight-loss would be less problematic or would not necessarily offset the therapeutic gain in cancer patients.
# [3] = tested on: C33A cells; assay: Apoptosis analysis (annexin V and PI staining); type: cell-based, human
# Experimental: (§1) Since programmed cell death (apoptosis) is a key mechanism by which anti-cancer drugs kill cancer cells, we determined the apoptotic effect of manzamine A on cervical cancer cells using annexin V and PI staining. […] Given the sensitivity of C33A and HeLa cell lines to manzamine A, an increase in apoptosis was expected. […] CaSki cells were the least sensitive and corresponds to the IC50 values as in FIG. 2.
# (§2) Cell-cycle and Apoptosis Analysis. Cervical cancer cells were seeded and treated with different concentrations of manzamine A (1) as above. Following trypsinization, one part of the cells was washed with PBS and fixed in chilled 70% ethanol on ice for 30 min. Cells were treated with RNAse A (1 mg/ml) at room temperature for 30 min and stained with propidium iodide (PI: 20 μg/ml). Cell-cycle distribution was analyzed by flow cytometry (Beckman Coulter Epics Elite, Beckman). A minimum of 10,000 events were counted per sample, and the data were analyzed using CXP software (Beckman Coulter) for the proportions of cells in G0/G1, S and G2/M phases of the cell cycle. The second part of the cells were washed twice with PBS and re-suspended in the buffer containing Alexa Fluor conjugated-Annexin-V and PI (Life Technologies, USA). The double staining of the cells was analyzed by flow cytometric analysis. A total of 10,000 cell events were collected to analyze the extent of early, late apoptosis, or necrosis from each sample with the percentages of bound annexin-V^+/PI^−, annexin V^+/PI^+, and annexin V^−/PI^+, respectively.
# [4] = tested on: SiHa cells; assay: Apoptosis analysis (annexin V and PI staining); type: cell-based, human; settings: 4 μM, 48 hours
# Experimental: as §1, §2
# [5] = tested on: HeLa cells; assay: Apoptosis analysis (annexin V and PI staining); type: cell-based, human
# Experimental: as §1, §2
# [6] = tested on: CaSki cells; assay: Apoptosis analysis (annexin V and PI staining); type: cell-based, human; settings: 4 μM, 48 hours
# Experimental: as §1, §2
# [7] = tested on: SiHa cells; assay: Cell cycle distribution by flow cytometry (PI); type: cell-based, human; settings: 4 μM
# Experimental: Differential Activation of G1 Phase Arrest and Apoptosis by Manzamine A (1). To understand the mechanism of manzamine A (1)-mediated cell growth inhibition, we analyzed the cell cycle distribution by flow cytometry in C33A, HeLa, SiHa, and CaSki cell lines. […] FIGS. 3A and 3B show a representation of manzamine A (1) effect on cervical cancer cells treated with 4 μM concentration. […] The values represent standard error from the mean (mean±SE). DMSO serves as control. The significance level represents; *p<0.05; **p<0.001; ***[…]; and ns=non-significant. […] Particularly at 4 μM concentration, the percentage of G0/G1 cell population in SiHa and CaSki increased to 1.2 fold (p=0.001) and 1.4 fold (p=0.011) at 24 hours, and 1.2 fold (p=0.03) and 1.5 fold (p=0.006) at 48 hours as compared to respective DMSO control.
# as §2
smiles,measurement,setting,value
O[C@]12C=C(c3nccc4c3[nH]c3ccccc34)[C@@H]3CCN(CCCC/C=C\CC1)C[C@@]31C[C@@H]3/C=C\CCCCN3[C@H]12 [manzamine A],cervical cancer cell proliferation,"[1]; 1 to 4 μM, time- and dose-dependent, vs DMSO control",significantly inhibited
same,"anti-proliferative, non-cytotoxic concentrations",[1]; cervical cancer cells,up to 4 μM
same,body weight,[2],weight loss
same,percentage of induced apoptotic cells (apoptosis+ necrosis),"[3]; 4 μM, 48 hours",36.5%
same,apoptosis and necrosis,[3]; 24 hours,induces apoptosis
same,percentage of induced apoptotic cells (apoptosis+ necrosis),[4],33.6%
same,percentage of induced apoptotic cells (apoptosis+ necrosis),"[5]; 4 μM, 48 hours",75.9%
same,apoptosis,[5]; forty-eight hours treatment,significant increase
same,percentage of induced apoptotic cells (apoptosis+ necrosis),[6],23.2%
same,increase of percentage of G0/G1 cell population vs DMSO control,[7]; 24 hours,1.2 fold
same,increase of percentage of G0/G1 cell population vs DMSO control,[7]; 48 hours,1.2 fold
